US10695288B2, “Reactive oxygen species (ROS)-responsive compositions and methods thereof” (VANDERBILT UNIVERSITY, priority 2014, dated 2020)

What was measured:
[1] = Peroxynitrite scavenging in vitro (Pyrogallol Red bleaching assay); assay type: biochemical; conditions: 10 μM peroxynitrite; negative control
Protocol: The ability of PPS microspheres to scavenge peroxynitrite was tested in vitro using a Pyrogallol Red (PGR) bleaching assay. Treatment groups consisting of PBS, blank PPS microspheres (0.5-1.5 mg/mL), tempo-PPS microspheres (0.5 mg/mL), tempol (0.2 mg/mL, hydrophilic analog of tempo-benzoate), and ascorbic acid (negative control, pH adjusted to 7.4) were prepared in a 48-well plate with 500 μL volume per well. A PGR stock solution was prepared in PBS ([…]) and 10 μL was added to each well. Peroxynitrite stock solution was thawed on ice and diluted to a concentration of 1 mM in 0.3 M NaOH. After baseline absorbance of the dye was measured in a plate reader at 540 nm, 5 μL of peroxynitrite was added to each well (final concentration of 10 μM) and absorbance measurements were collected for one hour.

type II collagen = experiment: IVIS imaging of MabCII fluorescence after knee mechanical overload; assay type: in vivo, C57BL/6 mice; conditions: knee injection, loading cycles; vs PBS; p=0.0181 for microspheres
Protocol: (§1) For the study, C57BL/6 mice knees were injected with TPCA-1-PPS microspheres, TPCA-1 in its soluble form, or a PBS saline control. The mice were then given loading cycles to induce damage to the knee via the Poulet model of knee overload. At the completion of the loading cycles, the mice were given fluorescent indicators and evaluated using IVIS (in vivo imaging system) for type II collagen (and indicator of cartilage damage), and MMP activity (implicated in the progression of OA). […] This difference was not seen in the mice given the soluble form of TPCA-1 however.
(§2) TPCA-PPS microspheres were made as shown above. Chondrocytes were obtained from porcine cadavers prepared by the University of Tennessee Heath Science Center. MMPSense750 and XenoFluor 680 was obtained from PerkinElmer. Monoclonal antibodies to type II collagen were produced in our lab. C57BL/6 male mice were obtained from Jackson Laboratory (Maine, USA) and was acclimated in a housing facility before experimentation. A custom fit ElectroForce® 3200 (Bose Corp., Minnesota, USA) biomaterials test instrument was used for mechanical loading. The mechanical loading apparatus was custom made to fit the proximal tibia in the upper cup and dorsiflexed ankle in the bottom cup.

MMP-13 activity = experiment: IVIS imaging of MMPSense fluorescence after knee mechanical overload; assay type: in vivo, C57BL/6 mice; conditions: knee injection, loading cycles; vs PBS; p=0.0184 for microspheres
Protocol: as §1, §2

[2] = Pilot studies with free curcumin in vitro; assay type: physicochemical
[3] = system: ROS levels in ischemic tissue; experiment: Pilot studies with free curcumin in ischemic tissue; assay type: in vivo
[4] = Superoxide scavenging in vitro (DHE fluorescence, xanthine/xanthine oxidase); assay type: biochemical; conditions: 55 μg/mL, one-way ANOVA p<0.0001
Protocol: In vitro superoxide scavenging activity of the tempo-PPS microspheres was evaluated using a dihydroethidium (DHE) fluorescence assay. DHE has been widely used to detect superoxide, which reacts with DHE to form a specific fluorescent product, 2-OH-ethidium (2OH-E). The effects of PPS and tempo-benzoate on superoxide were determined using a superoxide-generating, cell-free enzymatic system containing 0.046 U/ml xanthine oxidase and 0.2 mM xanthine. Xanthine was prepared in PBS−/− as a stock solution (1.21 mg/mL), and the appropriate volume of xanthine stock solution was added to the xanthine oxidase solution to reach the required final concentration. The xanthine/xanthine oxidase solution (100 μL) was added to wells in a black-walled, 96-well plate containing the following treatments: PBS, blank PPS microspheres (55 μg/mL), free tempo-benzoate (dissolved in acetonitrile then diluted to 5% acetonitrile, 55 μg/mL tempo-benzoate), and tempo-PPS microspheres (55 μg/mL microsphere concentration). Each well contained 10 μL of a treatment. […] After 10 minutes, 100 μL of the DHE solution was added to each well (10 uM final DHE concentration) and the fluorescence intensity was measured in a plate reader (Tecan Group Ltd., Mannedorf, Switzerland) over a time frame of 1 hour with an excitation of 405 nm and an emission of 570 nm. […]

[5] = Hydrogen peroxide scavenging in vitro (Amplex Red, xanthine/xanthine oxidase); assay type: biochemical; conditions: 1 hour of incubation, one-way ANOVA p<0.001
Protocol: H2O2-scavenging activity of the PPS microspheres was verified in vitro using an Amplex Red Hydrogen Peroxide/Peroxidase Assay kit according to the manufacturer's instructions. Xanthine and xanthine oxidase were used at the same concentrations as described in the DHE assay to generate a reaction solution containing both superoxide and hydrogen peroxide. The reaction solution was added to wells in a black-walled, 96-well plate containing either PBS, blank PPS microspheres (final concentrations of 60 μg/mL and 7 μg/mL), or free tempo-benzoate (final concentrations of 0.5 mg/mL and 60 μg/mL). The Amplex Red working solution was freshly prepared as described in the kit instructions using the included Amplex Red, horseradish peroxidase, and 1× reaction buffer. The working solution was then added to the wells and fluorescence was measured in a plate reader at 1 hour with an excitation of 530 nm and an emission of 590 nm.

[6] = system: mouse hind limb ischemia model; experiment: Speckle variance OCT of vascular morphology in adductor and gastrocnemius regions (Example 2); assay type: in vivo, FVB mice; conditions: gastrocnemius muscle, day 3, vs saline
Description: Briefly, the femoral artery and vein of the right hind limb were ligated with 6-0 sutures proximal to the origins of the superficial epigastric artery and deep branch of the femoral artery, and proximal to the vessels the branch from the femoral artery near the knee. Major side branches were also ligated with 6-0 sutures before the ligated segment of the femoral artery and vein was excised. The incision was closed with interrupted 5-0 nylon sutures. In therapeutic experiments, treatments were injected intramuscularly in the ischemic limb following closure of the skin incision. […]
At 0, 3, 7, 14, 21, and 28 days post-surgery, the hind limb vasculature in the adductor and gastrocnemius muscle regions was imaged using a swept-source optical coherence tomography (OCT) system as described previously (26, 39). […] Speckle variance OCT volumes were acquired non-invasively through the skin in 4 mm×4 mm areas covering the two muscle regions, and average intensity projections in depth were used to visualize all vessels detected within the imaged volume. After image processing was performed to enhance contrast and enable vessel segmentation (39, 40), morphological parameters including vessel area density (total area filled by vessels/total area of imaged region) and vessel length fraction (total vessel length/total area of imaged region) were quantified.

MMP-13 = MMP-13 expression from PCR with TNF-α; assay type: cell-based, porcine; conditions: TNF-α alone
Description: as §2

Molecule: O=C1O[C@H]([C@@H](O)CO)C(O)=C1O [Ascorbic acid, ascorbic acid]
- relative bleaching [1]: 2%

Molecule: NC(=O)Nc1sc(-c2ccc(F)cc2)cc1C(N)=O [TPCA-1 in solution, TPCA-1]
- MabCII fluorescence (exposed type II collagen) (type II collagen): not a significant reduction in fluorescence
- MMPSense fluorescence (MMP-13 activity) (MMP-13 activity): not a significant reduction in fluorescence

Molecule: COc1cc(/C=C/C(=O)CC(=O)/C=C/c2ccc(O)c(OC)c2)ccc1O [free curcumin, Curcumin]
- behaviour of free curcumin in vitro [2]: formed crystals in vitro
- ROS levels in ischemic tissue [3]: exacerbated ROS levels in ischemic tissue

Molecule: CC1(C)CC(OC(=O)c2ccccc2)CC(C)(C)N1[O] [free tempo-benzoate, 4-hydroxy-TEMPO benzoate]
- fluorescent signal from the DHE oxidation product compared to no treatment [4]: significantly reduce fluorescence
- Amplex Red fluorescence [5]: significantly increases the fluorescent signal
- vessel area density ([6]; p<0.01): saline-treated mice have significantly lower vessel area density
- vessel length fraction ([6]; p<0.05): significantly lower in the saline group

Molecule: SOD: bovine SOD (20 U/ml) used as a negative control treatment
- fluorescent signal from the DHE oxidation product compared to no treatment [4]: further inhibited

Molecule: TNF-α
- increase in MMP-13 expression (MMP-13): ~20 fold
